Measured values taken from ChEMBL document CHEMBL4689842, “EUbOPEN Chemogenomics Library wave 1” (2021).

System: U2OS
Assay: Incucyte cell viability with U2OS; also: filed as whole numbers so only -1 and 0 and 1 occur
Type: toxicity, cell-based
Conditions: human, 10 µM, compound concentration 10 uM
[1] = 0 h, replicate number 1, timepoint 0 hours
[2] = 6 h, replicate number 2, timepoint 6 hours
[3] = 12 h, replicate number 1, timepoint 12 hours
[4] = 18 h, replicate number 1, timepoint 18 hours
[5] = 24 h, replicate number 1, timepoint 24 hours
[6] = 24 h, replicate number 2, timepoint 24 hours
[7] = 0 h, replicate number 2, timepoint 0 hours
[8] = 6 h, replicate number 1, timepoint 6 hours
[9] = 12 h, replicate number 2, timepoint 12 hours
[10] = 18 h, replicate number 2, timepoint 18 hours

Row | Compound | Growth Rate [1] | Growth Rate [2] | Growth Rate [3] | Growth Rate [4] | Growth Rate [5] | Growth Rate [6] | Growth Rate [7] | Growth Rate [8] | Growth Rate [9] | Growth Rate [10]
1 | Cc1ccc2c(c1)c1c(n2CCc2ccc(C)nc2)CCN(C)C1 [LATREPIRDINE] | 0 | 0 | 1 | 0 | 1 | 0 |  |  |  | 
2 | CC(C)CC(=O)Nc1[nH]nc2c1CN(C(=O)C1CCN(C)CC1)C2(C)C [PHA-793887] | 1 |  | 0 | 0 | 0 |  | 0 | 0 |  | 
3 | CCCSc1nc(N[C@@H]2C[C@H]2c2ccc(F)c(F)c2)c2nnn([C@@H]3C[C@H](OCCO)[C@@H](O)[C@H]3O)c2n1 [TICAGRELOR] | 0 |  | 0 | 0 | 0 |  |  | 0 |  | 
4 | CN1CCN(Cc2ccc(Nc3ncc(Cl)c(Nc4ccccc4S(=O)(=O)N(C)C)n3)cc2)CC1 [DUBERMATINIB] | 0 |  | 0 | 0 | 0 |  |  | 1 |  | 
5 | CC(C)OC(=O)N1CCC(Oc2ncnc3c2cnn3-c2ccc(S(C)(=O)=O)cc2F)CC1 | 0 | 0 | 1 | 1 | 1 | 0 |  |  | 0 | 0
6 | O=C(c1cc2c(cc1F)OC(c1ccc(F)cc1)(c1ccc(Cl)cc1Cl)O2)N1CCOCC1 (stereo not drawn) | 0 | 1 | 0 | 0 | 0 |  |  |  |  | 
7 | C=CC(=O)Nc1cccc(Oc2nc(Nc3ccc(N4CCN(C)CC4)cc3OC)ncc2Cl)c1 | 0 |  | 0 | 0 | 0 |  |  | 0 |  | 
8 | O=c1cc(N2CCOCC2)oc2c(-c3cccc4c3sc3ccccc34)cccc12 | 0 | 1 | 0 | 0 | 0 |  |  | 0 | 1 | 
9 | CNCc1ccccc1-c1csc([C@@H](C)Nc2nc(C)nc3cc(OC)c(OC)cc23)c1 [BAY-293] | 0 | 1 | 0 | 0 | 0 |  |  | 0 |  | 
10 | COc1ccc(-c2ccc3ncc4c(c3c2)n(-c2ccc(N3CCNCC3)c(C(F)(F)F)c2)c(=O)n4C)cn1.O=C(O)/C=C\C(=O)O [BGT-226] | 0 |  | 0 | 0 | 0 |  |  | 0 |  | 
11 | COc1cc2ncn(-c3cc(OCc4ccccc4C(F)(F)F)c(C(N)=O)s3)c2cc1OC [GW843682X] |  |  | 1 | 0 | 0 |  | 0 |  | 0 | 
12 | CC(C)Oc1ccccc1C(=O)Nc1ccccc1C(=O)Nc1cccc(S(=O)(=O)C(F)(F)F)c1 | 0 |  |  | 1 | 1 |  |  |  |  | 
13 | COc1cc(Nc2nccc(-c3cnn4nc(OC)ccc34)n2)cc(C(F)(F)F)c1 | 1 |  | 0 | 0 | 0 |  | 0 | 0 |  | 
14 | O=c1[nH]c2ccccc2n1C1CCN(Cc2ccc(-c3[nH]c4cc5ncnc5cc4nc3-c3ccccc3)cc2)CC1 | 0 |  | 0 | 0 | 0 | 1 |  |  | 1 | 1
15 | C=CC(=O)Nc1cccc(Sc2nc(Nc3ccc(N4CCN(C)CC4)cc3)ncc2Cl)c1 | 0 |  | 0 | 0 | 0 |  |  | 0 |  | 
16 | CCc1ccc(OCc2ccccc2C(=O)Nc2ccc3nc(C)cc(N)c3c2)cc1.Cl | 0 |  | 0 | 0 | 0 |  |  | 0 |  | 
17 | C[C@]1(O)C[C@@H](c2nc(-c3ccc4ccc(-c5ccccc5)nc4c3)c3c(N)nccn32)C1 [LINSITINIB] | 1 |  | 0 | 0 | 0 |  |  | 0 |  | 
18 | Cc1cc(C)c(-n2ccn3nc(-c4cccnc4)cc23)cc1NC(=O)c1cc(C#N)cc(S(F)(F)(F)(F)F)c1 [BAY-826] |  |  | 0 | 0 | 0 |  | 0 | 1 |  | 
19 | C[C@]12CC[C@@H]3c4ccc(O)cc4CC[C@H]3[C@@H]1CC[C@@H]2O [ESTRADIOL] |  |  | 0 | 0 | 0 |  | 0 | 0 |  | 

Row | Compound | Growth Rate [1] | Growth Rate [2] | Growth Rate [3] | Growth Rate [4] | Growth Rate [5] | Growth Rate [6] | Growth Rate [7] | Growth Rate [8] | Growth Rate [9] | Growth Rate [10]
20 | CC1=C(C(=O)Nc2cc3cn[nH]c3cc2F)C(c2ccc(C(F)(F)F)cc2)CC(=O)N1 (stereo not drawn) |  |  |  | 1 | 1 |  |  |  |  | 
21 | Cc1nc(N2CC[C@H](O)C2)ncc1-c1cc(C(F)(F)F)cc2[nH]ncc12 | 1 | 1 | 1 | 0 | 0 |  |  | 0 |  | 1
22 | C=CC(=O)Nc1ccc2[nH]c(=O)n(C3CCN(Cc4ccc(-c5nc6cc[nH]c(=O)c6cc5-c5ccccc5)cc4)CC3)c2c1 [Borussertib] |  |  | 1 | 1 | 1 | 0 | 1 | 1 |  | 
23 | Cl.O=C(O)c1cc(-c2ccc(C3CCNCC3)cc2)c2ccc(-c3ccc(C(F)(F)F)cc3)cc2c1 | 1 |  | 0 | 0 | 0 |  | 0 | 0 |  | 
24 | Cc1c[nH]c2nccc(Oc3c(F)cc(Nc4cc(Cl)nc(N)n4)cc3F)c12 [BAY-549] |  |  | 0 | 0 | 0 |  | 0 | 0 |  | 
25 | CC(C)c1noc(N2CCC(COc3ccc(-c4ccc(S(C)(=O)=O)cc4)nc3)CC2)n1 [GSK-1292263] | 0 |  |  | 1 | 1 |  |  |  | 1 | 
26 | CN(c1ccccc1CNc1nc(Nc2ccc3c(c2)CC(=O)N3)ncc1C(F)(F)F)S(C)(=O)=O | 0 |  | 0 | 0 | 0 |  |  | 0 |  | 
27 | COc1ccccc1CN[C@H]1C2CCN(CC2)[C@H]1C(c1ccccc1)c1ccccc1 [CP-96345] | 0 | 1 | 1 | 1 | 1 |  |  |  |  | 
28 | CC(C)(C)NC[C@H](O)COc1nsnc1N1CCOCC1 [TIMOLOL] | 0 | 1 |  | 1 | 1 |  |  |  | 1 | 
29 | CNC(=O)Nc1ccc(-c2nc(N3CC4CCC(C3)O4)c3cnn(C4CCC5(CC4)OCCO5)c3n2)cc1 |  |  | 0 | 0 | 0 | 1 | 0 | 1 |  | 1
30 | CN1CCN(Cc2cc(NC(=O)c3ccc4c(c3)CN(c3ccccc3)CC4)cc(C(F)(F)F)c2)CC1 | 1 | 1 | 0 | 0 | 0 |  | 0 | 0 |  | 
31 | CNC(=O)Nc1ccc2c(c1)[C@@]1(CC2)OC(=O)N(CC(=O)N(Cc2ccc(F)cc2)[C@@H](C)C(F)(F)F)C1=O [A-486] | 0 |  | 0 | 0 | 0 | 1 |  | 0 | 1 | 
32 | CC(C)NC(=O)N1CC[C@H](NC2=Nc3cc(F)ccc3N(CC(F)F)c3ccc(Cl)cc32)C1 | 0 | 1 | 0 | 0 | 0 |  |  | 0 | 1 | 1
33 | Cc1cc(NC(=O)c2cccc(S(F)(F)(F)(F)F)c2)cc(-n2ccn3nc(-c4cccnc4)cc23)c1 [BAY-309] |  |  | 0 | 0 | 0 |  | 0 | 0 |  | 
34 | CCc1nn(CCCN2CCN(c3cccc(Cl)c3)CC2)c(=O)n1CCOc1ccccc1.Cl [NEFAZODONE HYDROCHLORIDE] |  |  | 0 | 1 | 0 |  |  | 1 |  | 0
35 | CNC(=O)c1ccc(Nc2ncc(C(F)(F)F)c(NCc3nccnc3N(C)S(C)(=O)=O)n2)cc1 [DEFACTINIB] | 0 | 0 | 0 | 0 | 0 |  | 1 | 1 |  | 
36 | Cc1cccc(CN2CCN(C(c3ccccc3)c3ccc(Cl)cc3)CC2)c1.Cl.Cl (stereo not drawn) | 0 | 0 |  | 1 | 1 | 0 | 1 |  | 0 | 0
37 | COC(=O)C1=C(C)NC(C)=C(C(=O)OCCCN2CCC(c3ccccc3)(c3ccccc3)CC2)[C@H]1c1cccc([N+](=O)[O-])c1 [NIGULDIPINE] | 0 | 0 | 0 | 0 | 0 |  |  |  |  | 
